# Measured values reported in patent US7511123B2, “Immuno-interactive fragments of the alpha-C subunit of inhibin” (Prince Henry's Institute of Medical Research, priority 1999, dated 2009).
# Assays:
# As #41 [1] = assay: RIA (Assay 2): competition with iodinated inhibin for As #41; type: binding, sheep; settings: for As#41 ED50: biotinylated peptides, 50% fall in binding of iodinated inhibin
# Text: (§1) This assay was used to determine which peptides compete with iodinated 30 kDa inhibin for As #41, #128 and #1989 (used in the original inhibin RIA, Lapphorn et al., 1989, supra) in a RIA format. This assay identifies those peptides that bind to inhibin-binding antibodies in the antiserum and provides a stricter affinity and specificity assessment in identifying the appropriate epitopes than that found with Assay 1. The competition between peptide and hr-inhibin (used as the standard) was assessed from their ED50 values. The RIA consisted of the competition of iodinated inhibin and either hr-inhibin reference preparation, individual peptides or pools from the 4 peptide regions, with As #41, #128 and in some instances, As #1989. The peptides/inhibin/iodinated inhibin and antisera (at a prescribed dilution) were incubated overnight at 4° C. using standard methodologies. The antibody-bound iodinated inhibin was immunoprecipitated with the addition of an anti-sheep IgG serum raised in goats and the radioactivity was measured in a gamma counter. The concentration of peptide that gives a 50% fall in binding of iodinated inhibin (ED50) was determined and this value was used to give a measure of the affinity of the peptide for the antiserum. This methodology consisted of determining the ED50 of the peptide in the RIA using iodinated human recombinant inhibin as tracer with either As #41, As #128 or As #1989 and graded doses of either hr-inhibin or peptide as described in Example 2.
# As #1989 = assay: RIA (Assay 2): competition with iodinated inhibin for As #1989; type: binding, rabbit; settings: for As#1989 ED50: 50% fall in binding of iodinated inhibin
# Text: as §1
# As #41 [2] = assay: Competitive 2-site assay (Assay 3), approach (b); type: binding, sheep; design: key to #41 2-site competitive assay Assay 3: +++++ major contribution; + minor contribution
# Text: This assay was developed to establish the relative importance of the individual peptides and peptide pools (identified as epitopes in Assays 1 and 2) in the sandwich antibody format used in the IFMA with As #128 as capture antibody and As #41 as detection antibody. Two approaches (a and b) were considered, Approach (a) explores the cross-reaction of peptides with inhibin for the immobilized As #128 while Approach (b) assesses their cross-reaction with inhibin for As #41.
# Approach (b). In this approach, the competition of peptides with the As #41 antiserum using the sandwich antibody format was assessed. Hr-Inhibin was initially incubated with the As #128 coated wells for 1 hour at room temperature. The biotinylated peptide pools and/or individual peptides were incubated together with iodinated As #41 for 1 hour and then added to the inhibin bound As #128 coated plates and incubated for 2 hours at room temperature. Plates were then washed to remove any unbound material and the resulting activity was measured in the gamma counter.
# As #128 [3] = assay: RIA (Assay 2): competition with iodinated inhibin for As #128; type: binding, sheep; settings: for As#128 ED50: biotinylated peptides, 50% fall in binding of iodinated inhibin
# Text: as §1
# PO-12 [4] = assay: Solid phase binding of Set 2 peptides to PO-12; design: species or system mouse; key: +++; ΦΦΦ strong effect; +, Φ weak effect; settings: Set 2 biotinylated peptides 24 micromoles/L
# Experimental: (§2) The binding of the 41 biotinylated peptides as set forth in Table 7 (peptide set 2) to the mouse monoclonal antibodies (PO# series) was assessed as follows:
# (§3) a) Assay 1 (solid phase assay). The assay was undertaken as outlined in assay 1 of Example 2. Biotinylated peptides (24 micromoles/L) were initially bound to streptavidin-coated plates. Mab (at an appropriate dilution to give a detectable response, 1:1000, 1:10000 dilution of the culture medium) was then added and incubated for 1.5 hr. The amount of bound Mab was determined using horseradish peroxidase-bound anti-mouse IgG serum and enzyme activity detected at 450-630 nm using an ELISA plate reader.
# PO-14 [5] = assay: Solid phase binding of Set 2 peptides to PO-14; design: species or system mouse; key: +++; ΦΦΦ strong effect; +, Φ weak effect; settings: Set 2 biotinylated peptides 24 micromoles/L
# Experimental: as §2, §3
# PO-12 [6] = assay: RIA of Set 2 peptides with PO-12; type: binding, mouse; design: key: ΦΦΦ strong effect; +, Φ weak effect; a) limited binding; settings: Set 2 biotinylated peptides 0.8 and 0.08 micromoles/L
# Experimental: (§4) The binding of the 41 biotinylated peptides as set forth in Table 7 (peptide set 2) to the mouse monoclonal antibodies (PO# series) was assessed as follows: b) Assay 2 (radioimrnunoassay, RIA) using iodinated human inhibin A as tracer. Mabs (at an appropriate dilution, see above) were incubated with iodinated human recombinant inhibin in the presence of biotinylated peptides (0.8 and 0.08 micromoles/L final concentration) overnight at room temperature.
# PO-14 [7] = assay: RIA of Set 2 peptides with PO-14; type: binding, mouse; design: key: ΦΦΦ strong effect; +, Φ weak effect; a) limited binding; settings: Set 2 biotinylated peptides 0.8 and 0.08 micromoles/L
# Experimental: as §4
# As#128 and/or As#41 = assay: Inhibin IFMA with pre-immunoabsorption of antisera by peptides; type: binding, sheep; settings: As#41 label pre-absorbed with peptide; As#128 coating antibody: buffer
# Text: This IFMA is used in the measurement of inhibin in serum from women with ovarian cancer and is presented at this juncture as a reference to the following procedures. The IFMA is a sandwich antibody assay in 96-well microtiter plates. The capture antiserum is As #128 and the labeled antiserum As #41, both raised in sheep to the alpha subunit of human inhibin. Sheep As #128 was also boosted with human recombinant 30-kDa inhibin. The microtiter plates were coated with a caprylic acid IgG cut of antiserum #128. Inhibin standard and serum samples were added and incubated for 2 hours at room temperature. A biotinylated antiserum (As #41) which has been immunopurified by absorption to a column of bovine (alpha)C subunit fusion protein (as previously described, Robertson et al., 1997, supra) followed by elution with a glycine (pH 2.5) buffer, was added to bind to the antibody-bound inhibin (2-hour incubation at room temperature). Fluorescently (Eu) labeled-streptavidin that has a high affinity for biotin is added (30 minutes at room temperature) and the Eu-bound streptavidin is counted in a time-resolved fluorimeter. The Eu measured is proportional to the inhibin bound by the two antisera.
# As another approach, the competition of combinations of peptides at a maximum saturating dose was assessed in the IFMA (FIGS. 7-9). […] This suppression in binding provides a measure of the contribution of that particular epitope to the assay.
# As #128 [8] = assay: Two-site assay design: peptides pre-incubated with As #128 coated plate; type: binding, sheep; settings: non-biotinylated peptides 0.1-1 micromolar
# Experimental: On the other hand, the IFMA design is based on the total amount of inhibin bound which is a combination of both antibody affinity and concentration. In order to establish to what extent epitopes to these peptides contribute to the overall IFMA, the following two-site assay designs were used.
# (i) Peptides #5, #20 and #30 (0, 0.1-1 micromolar) were incubated with the As #128 coated plate for 1.5 hours at RT and the wells washed. The highest dose of peptide used was saturating.
# (ii) Hr-Inhibin was then added as a saturating or near saturating dose to the As #128 coated plate and incubated for 2 hours at room temperature and the plate washed.
# (iii) Biotinylated As #41 was added to the above wells and incubated for 2 hours at RT. Plates were then washed and counted.
# As #41 [9] = assay: Two-site assay design variation: biotinylated #41 pre-incubated with peptide; type: binding, sheep; settings: non-biotinylated peptides 0.1-1.0 micromolar
# Experimental: (iv) In a variation to the above design, biotinylated #41 was pre-incubated with peptide (0.1-1.0 micromolar) for 1.5 hours at room temperature and then added to the As #128 coated plate pre-bound with inhibin as for (i)-(iii). […] Combination of peptide #5 and #30 led to 74% decrease.
# PO-14 [10] = assay: RIA of Set 2 peptides with PO-14; type: binding, mouse; settings: Set 2 biotinylated peptides 0.8 and 0.08 micromoles/L
# Experimental: as §4
# [11] = non-biotinylated peptides, hr-inhibin A as standard
Substance,PO-12 SPB (PO-12 [4]),PO-14 SPB (PO-14 [5]),suppression in binding with As #128 (As #128 [8]),blocking of As #41 binding to the inhibin-As#128 complex (As #41 [2]; biotinylated peptide pools or peptides incubated with iodinated As #41) [%],As#41 ED50 (As #41 [1]) [nM],As#1989 ED50 (As #1989; biotinylated peptides) [nM],#41 2-site competitive assay Assay 3 (As #41 [2]; relative contribution),As#128 ED50 (As #128 [3]) [nM],PO-12 RIA (PO-12 [6]),PO-14 RIA (PO-14 [7]),ED50 values As#41 (As #41 [1]; [11]) [nM],% suppression at 2ng inhibin (As#128 and/or As#41) [%],inhibition with biotinylated #41 pre-incubated with peptide (As #41 [9]),ED50 with As #1989 (As #1989; biotinylated peptides) [nM],affinity to rabbit antiserum #1989 (As #1989; in words),ED50 values As#1989 (As #1989; [11]) [nM],ED50 values As#128 (As #128 [3]; [11]) [nM],PO-14 RIA (PO-14 [10])
SGSG ETVPNLLTQHCACI [Peptide 33],,,,,4000,>2500,+,2500,,,,,,,,,,
SGSG PYSLLPGAQPCCAA [Peptide 24],+++,+++,,,6200,>2500,,900,ΦΦΦ,ΦΦΦ,,,,,,,,
SGSG TPAQPYSLLPGAQP [Peptide 23],+++,+++,,,6200,>2500,,500,ΦΦΦ,,,,,,,,,ΦΦ

# The next lines start with results.
PO-12 SPB (PO-12 [4]),PO-14 SPB (PO-14 [5]),suppression in binding with As #128 (As #128 [8]),blocking of As #41 binding to the inhibin-As#128 complex (As #41 [2]; biotinylated peptide pools or peptides incubated with iodinated As #41) [%],Substance,As#41 ED50 (As #41 [1]) [nM],As#1989 ED50 (As #1989; biotinylated peptides) [nM],#41 2-site competitive assay Assay 3 (As #41 [2]; relative contribution),As#128 ED50 (As #128 [3]) [nM],PO-12 RIA (PO-12 [6]),PO-14 RIA (PO-14 [7]),ED50 values As#41 (As #41 [1]; [11]) [nM],% suppression at 2ng inhibin (As#128 and/or As#41) [%],inhibition with biotinylated #41 pre-incubated with peptide (As #41 [9]),ED50 with As #1989 (As #1989; biotinylated peptides) [nM],affinity to rabbit antiserum #1989 (As #1989; in words),ED50 values As#1989 (As #1989; [11]) [nM],ED50 values As#128 (As #128 [3]; [11]) [nM],PO-14 RIA (PO-14 [10])
+++,+++,,,SGSG LPGAQPCCAALPGT [Peptide 25],5000,>2500,,2000,ΦΦΦ,ΦΦΦ,,,,,,,,
,,no suppression at all,50,SGSG RTTSDGGYSFKYET [Peptide 30],2500,<10,,600,,,>5000,28,25-30%,< 10,high affinity,2500,>5000,
